The values below come from US12729377B2, “RNAi agents and compositions for inhibiting expression of angiopoietin-like 3 (ANGPTL3), and methods of use” (Arrowhead Pharmaceuticals, Inc., priority 2017, dated 2026).

In data set [1] the test system is ANGPTL3 gene. The data set is described as follows: Example 10: serum HDL in mice. It is filed as in vivo. Particulars: 0.5 mg/kg single SC injection day 1, female C57bl/6 mice, n=3, ratio to D5W control. The protocol:
To assess the in vivo activity of further ANGPTL3 RNAi agents that are designed to target position 304 on the ANGPTL3 gene, six- to eight-week-old female C57bl/6 mice were used. Pre-dose serum samples were taken at day −1 after a four hour fast. At day 1, each mouse was given a single subcutaneous administration of 200 μl containing 0.5 mg/kg (mpk) of an ANGPTL3 RNAi agent in D5W (dextrose in 5% water), or control (D5W) with no RNAi agent, according to the dosing groups recited in Table 47.
Each of the RNAi agents included a modified sequence and an N-acetyl-galactosamine-containing targeting ligand conjugated to the 5′ terminal end of the sense strand. (See Tables 3, 4, and 5 for modified sequences and targeting ligand structures). As noted above, each of the ANGPTL3 RNAi agents dosed in this study included nucleotide sequences designed to target the ANGPTL3 gene at position 304. The injections were performed between the skin and muscle (i.e. subcutaneous injections) into the loose skin over the neck and shoulder area. Three (3) mice in each group were tested (n=3). Serum was collected on days 8, 15, 22, 29, and for some groups on day 36 (i.e., Groups 1, 2, and 9-13 only). Mice were fasted for four hours prior to each collection. ANGPTL3 protein levels in serum were measured by ELISA assay (R&D Systems), according to the manufacturer's recommendations. Triglycerides, total cholesterol, high-density lipoprotein (HDL), and low-density lipoprotein (LDL) in serum were measured on a Cobas® Integra 400 (Roche Diagnostics), according to the manufacturer's recommendations.
The ANGPTL3 protein levels, triglyceride levels, total cholesterol levels, HDL levels, and LDL levels for each animal were normalized. For normalization, the level of ANGPTL3 protein, triglyceride, HDL, and total cholesterol, respectively, for each animal at a time point, was divided by the pre-treatment level of expression in that animal (in this case at day −1) to determine the ratio of expression “normalized to pre-treatment.” Expression at a specific time point was then normalized to the D5W control group by dividing the “normalized to pre-treatment” ratio for an individual animal by the mean “normalized to pretreatment” ratio of all mice in the D5W control group.

Data set [2] deals with ANGPTL3 gene. The data set is described as follows: Example 9: serum triglycerides in cynomolgus monkeys. It is filed as in vivo, cynomolgus macaque (Macaca fascicularis). Particulars: 2.0 mg/kg single SC injection day 1, cynos, n=3. The protocol: Additional ANGPTL3 RNAi agents were evaluated in cynomolgus monkeys. On day 1, cynomolgus macaque (Macaca fascicularis) primates (also referred to herein as “cynos”) were administered a single subcutaneous injection of 0.3 mL/kg (approximately 2-3 mL volume, depending on animal mass) containing 2.0 mg/kg of an ANGPTL3 RNAi agent, which included either AD05488, AD05743, AD05775, or AD05841, each formulated in saline. […] ANGPTL3 RNAi agents AD05488, AD05743, and AD05775 included nucleotide sequences designed to target position 304 of the ANGPTL3 gene. ANGPTL3 RNAi agent AD05841 included nucleotide sequences designed to target position 1035 of the ANGPTL3 gene.
Three (3) cynos in each group were tested (n=3). Blood samples were drawn and serum samples were analyzed on days −14 (predose), −7 (predose), 1 (pre-dose), 8, 15, 22, 29, and 35. Cynos were fasted overnight prior to each collection. ANGPTL3 protein levels in serum were measured by ELISA assay (R&D Systems), according to the manufacturer's recommendations. Triglycerides, total cholesterol, high-density lipoprotein (HDL), and low-density lipoprotein (LDL) in serum were measured on a Cobas® Integra 400 (Roche Diagnostics), according to the manufacturer's recommendations.
The ANGPTL3 protein levels, triglyceride levels, total cholesterol levels, HDL levels, and LDL levels for each animal were normalized. For normalization, the level of ANGPTL3 protein, triglyceride, HDL, and total cholesterol, respectively, for each animal at a time point, was divided by the average pre-treatment level of expression in that animal (in this case at days −14, −7, and 1) to determine the ratio of expression “normalized to pre-treatment.”

In the oligonucleotide strings, read from the 5' end, every base follows the letter of its sugar. An asterisk marks phosphorothioate; unmarked linkages are phosphodiester. Other units and linkages are bracketed, terminal groups are in braces. A string of capitals states the bases alone. {NAG37} = tridentate N-acetyl-galactosamine targeting ligand, structure (NAG37)s; [invAb] = inverted abasic unit; m = 2'-O-methyl; f = 2'-fluoro

Regarding “AD05488: RNAi agent duplex: antisense AM07235-AS, sense AM07234-SS (antisense mU*fA*mC*fUmGfAmUfCmAfAmAfUmAfUmGfUmUfGmAfG*mC; sense {NAG37}*[invAb]*mGmCmUmCmAmAmCmAfUfAfUmUmUmGmAmUmCmAmGmUmA*[invAb])”, the “Average HDL Normalized to Pre-Treatment and Control” value with ANGPTL3 gene [1] (Day 8) is given as 0.648; with ANGPTL3 gene [1] (Day 15), 0.807; in the data set on ANGPTL3 gene [1] (Day 22) it was 0.733; in the data set with ANGPTL3 gene [1] (Day 29), 0.746; in the data set on ANGPTL3 gene [1] (Day 36), 0.816. Moreover, the “Average Triglycerides Normalized to Pre-Treatment” value is on record as 0.413 in the data set on ANGPTL3 gene [2] (Day 8); 0.403 with ANGPTL3 gene [2] (Day 15); 0.288 with ANGPTL3 gene [2] (Day 22); 0.344 with ANGPTL3 gene [2] (Day 29); 0.350 in the data set on ANGPTL3 gene [2] (Day 35).
